PubChem BioAssay AID463229 (Broad Institute, 2010)
The source made the active and inactive calls.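 How the source made its calls: active means compounds raising the signal whose fitted half-maximal concentration is at or below their top tested dose (cut at about 25 µM in these data); inconclusive means flat fit at 30 to 70% activity, or a poor fit; inactive means the rest.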

Test system: INS-1E rat beta cells, no cytokines, CellTiter-Glo ATP, 48 h
Test: ATP level change in INS-1E without cytokines, dose response, counter-screen for beta-cell apoptosis protection project, INS-1E rat cells, ATP luminescence, cherry pick (AID 463229)

SMILES | AC50
Cc1cc(N2CCN(S(=O)(=O)c3ccc(Cl)cc3)CC2)c2ccccc2n1 | 7.4 µM
COc1cccc(/C=N/NC(=O)CN2CC(c3ccccc3)CC2=O)c1O (stereo unspecified) | 18.7 µM
CC(=O)Nc1ccccc1OCC(=O)c1cc(C)n(Cc2cccs2)c1C | 1.01 µM
O=C(Nc1cccc(Cl)c1)Nc1nnc(-c2ccncc2)s1 | 6.36 µM
CCCCCCCCCCOC(=O)C[N+](C)(C)C/C=C(/C)Cl | 16.7 µM
Cc1nc(C)c(-c2csc(NCCc3ccccc3)n2)s1 | 24.1 µM
O=C(Nc1cccnc1)c1cccnc1 | 10.9 µM
COc1cnc(-c2ccccn2)nc1Oc1ccc(C(C)(C)C)cc1 | 13.7 µM
N=c1c2c(n(Cc3ccc(Br)cc3)c3c1CCC3)CCCC2 | 3.04 µM
CCN(CC)CCOc1ccc2c(c1)C(=NNC(=O)c1ccccn1)c1cc(OCCN(CC)CC)ccc1-2 | 13.8 µM
O=C(NCc1cccnc1)c1ccc(NC(=O)c2cccc([N+](=O)[O-])c2)cc1 | 0.205 µM
C(#Cc1ccccc1)C[N+]1(CC#Cc2cccc3ccccc23)CCCC1 | 8.17 µM
Cc1nc(Nc2cnc(/C=C/c3cc(C(=O)Nc4cccc(C(F)(F)F)c4)ccc3C)cn2)cc(N2CCNCC2)n1 | 12.3 µM
CC(=O)N1CCCc2cc(S(=O)(=O)N3CCCC(C(=O)N4CCN(c5cccc(Cl)c5)CC4)C3)ccc21 (stereo unspecified) | 7.05 µM
CCc1ccc(C2=NNC(=Nc3cccc(S(=O)(=O)N(C)C)c3)SC2)cc1 | 3.66 µM
CC(C)CNC(=O)COC(=O)c1c2c(nc3ccccc13)/C(=C/c1cccs1)CC2 | 1.5 µM
C/C(=N\N1C(=O)c2ccccc2NC1c1ccco1)c1ccccc1O (stereo unspecified) | 12.5 µM
CC[C@H](C)[C@@H](C(=O)NCCCCCCCCCCC(=O)N1CCN(C(=O)OC(C)(C)C)CC1)n1cc(CCCCCNC(=O)OC(C)(C)C)nn1 | 5.92 µM
NC(N)=N/N=C/c1ccc(OCc2ccccc2)cc1 | 14.7 µM
Cc1ccccc1/C=C/C(=O)c1ccc([N+](=O)[O-])o1 | 5.07 µM
CCCCCc1ccc(-c2cn(CN3C(=O)c4ccccc4C3=O)nn2)cc1 | 1.23 µM
CC(=O)c1ccc(N2CCN(S(=O)(=O)c3ccc4c(c3)CC(C)N4C(C)=O)CC2)cc1 (stereo unspecified) | 8.54 µM

SMILES | AC50
COc1ccc(CCNc2cc(N3CCN(C(=O)c4ccccc4OC)CC3)ccc2[N+](=O)[O-])cc1OC | 8.74 µM
CCCCCc1ccc(OCCCC[n+]2cccc(C)c2)c(CCCCC)c1 | 2.1 µM
C/C(=N\NC(=O)c1ccc(Cl)cc1)c1ccccn1 | 1.62 µM
Oc1c(N=Nc2ccccn2)ccc2ccccc12 | 1.86 µM
CCc1nnc(NC(=O)c2cccc(C(=O)Nc3nnc(CC)s3)n2)s1 | 2.98 µM
CCN1CCN(CCCNC(=O)c2ccc3c(c2)NC(=O)/C(=C\c2cccc(C)c2)S3)CC1 | 12.3 µM
Nc1nc2ccccc2n1/N=C/c1ccc([N+](=O)[O-])s1 | 7.19 µM
CCc1c(C)nc2ncnn2c1NCCc1ccc(OC)cc1 | 6.85 µM
Cc1cc2nc(NCCCO)n(CC(=O)c3cc(C(C)(C)C)c(O)c(C(C)(C)C)c3)c2cc1C | 8.83 µM
C(=N\Nc1nncc2ccccc12)/c1ccccn1 | 4.47 µM
Cc1nc2cc(-c3ccccc3)sc2c(=O)n1N | 3.6 µM
Oc1c(Br)cc(Br)cc1/C=N/Nc1ccc(Cl)nn1 | 1.21 µM
COc1ccccc1CNCC(O)Cn1c2ccccc2c2ccccc21 (stereo unspecified) | 12.9 µM
Cc1cccc(N=Nc2ccc(O)c3ncccc23)c1 | 5 µM
O=[N+]([O-])c1ccc(NC(=S)NCCc2ccc(Cl)cc2)cc1 | 8.12 µM
COC1=C(Nc2ccccc2OC)C(=O)c2ccccc2C1=O | > 26 µM (inactive)
Cc1cc(C)c2c(N)c3cccc(C)c3nc2n1 | 7.91 µM
C#Cc1ccc([C@@H]2C=C(C(=O)N3CCN(Cc4ccccc4)CC3)O[C@H](OCCCCO)C2)cc1 | 2.13 µM
COc1ccc(-c2ccc([C@H]3[C@@H]4C=CCC[C@@]4(C)C(=O)N3Cc3ccccc3)c(F)c2)cc1 | 22.5 µM
O=C(NC(c1cccnc1)C(F)(F)F)c1cc(COc2ccc3c(c2)CCCC3)on1 (stereo unspecified) | 4.62 µM
O=C1/C(=C\c2cccnc2)CN(Cc2ccccc2)C/C1=C\c1cccnc1 | 7.58 µM
COc1cccc(/C=N/Nc2ccc([N+](=O)[O-])cn2)c1O | 7.78 µM

SMILES | AC50
O=C(Nc1ccc(Cl)cc1)c1nc[nH]c1C(=O)NCCN(CCNC(=O)c1[nH]cnc1C(=O)Nc1ccc(Cl)cc1)CCNC(=O)c1[nH]cnc1C(=O)Nc1ccc(Cl)cc1 | 8.08 µM
CCCCCCCCn1c2c(c(=N)c3c1CCC3)CCCC2 | < 0.195 µM
COc1ccccc1-[n+]1c(C)cc(/C=C2\Sc3ccccc3N2C)cc1C | < 0.195 µM
O=[N+]([O-])c1ccc(O)c(/C=N/Nc2nc3ccccc3[nH]2)c1 | 2.01 µM
COc1ccc2c(c1)N(C)/C(=C/c1cccc[n+]1C)S2 | 1.49 µM
CNC[C@H](Cc1ccccc1)NC[C@@H](Cc1cccc2ccccc12)NCCc1ccc(C)cc1 | 7.64 µM
COc1ccc(N(C(=O)CCl)C(C(=O)NCCc2ccccc2)c2cccs2)cc1Cl (stereo unspecified) | 7.56 µM
CCCC12C(=O)C(C)(C(c3ccccc3)=C1c1ccccc1)C1C(=O)N(c3ccc(C)cc3)C(=O)C12 (stereo unspecified) | 4.4 µM
O=C(/C=C/c1cccc([N+](=O)[O-])c1)c1ccc([N+](=O)[O-])o1 | 3.95 µM
CC1(C)CC(=O)C2=C(C1)OC1=C(C(=O)CC(C)(C)C1)C2c1ccc(O)cc1O | 7.31 µM
O=C1C(Cl)=C(NCc2cccnc2)C(=O)c2ccccc21 | 14.3 µM
Cc1sc2ncnc(NCC(O)c3ccc([N+](=O)[O-])cc3)c2c1C (stereo unspecified) | 5.1 µM
CCOc1ccc(N=Cc2c(C)[nH]n(-c3nc4ccccc4[nH]3)c2=O)cc1 | 2.83 µM
O=C(N/N=C(\c1ccccc1)c1ccccn1)c1cccc([N+](=O)[O-])c1 | 2.11 µM
CCC(CO)Oc1cc(NCc2ccc(C(C)(C)C)cc2)c2ncn(C(C)C)c2c1 (stereo unspecified) | 2.45 µM
O=C(N/N=C/c1cnc(N2CCCCC2)s1)c1ccc(C(F)(F)F)cc1 | 6.66 µM
COC(=O)[C@H](CC(C)C)N(Cc1ccccc1)S(=O)(=O)N(Cc1ccc(OC)cc1)[C@@H](CC(C)C)C(=O)OC | 5.08 µM
Cc1sc2cc3c(c(C(=O)c4ccccc4)[n+]2c1C)-c1cccc2cccc-3c12 | 2.27 µM
COc1ccc(Cn2cc3c(-c4ccc(F)cc4)nnc-3c3cc(OC)c(OC)cc32)cc1 | 9.02 µM
COc1ccc(C(=O)N(C)c2ccccc2C(=O)NCCc2ccccc2)cc1 | 7.85 µM
Cc1ccc(CSC(Nc2ccc(F)cc2)=C(C#N)C#N)cc1 | 4.11 µM
CCCCC[n+]1cccc2c3ccccc3ccc21 | 5.92 µM

SMILES | AC50
OCCCNc1c2ccccc2nc2ccccc12 | 9.09 µM
Cn1c(/C=C/c2ccc([N+](=O)[O-])o2)nc2ccccc2c1=O | 3.56 µM
Clc1ccc(C(Cn2ccnc2)OCc2csc3c(Cl)cccc23)c(Cl)c1 (stereo unspecified) | 14.6 µM
Cc1ccc2c(c1)nnn2C1CCN(S(=O)(=O)c2ccc(C(=O)N3C(C)CCCC3C)cc2)CC1 (stereo unspecified) | 7.75 µM
CC(C)(C)c1cc[n+](C2=C([O-])c3ccccc3C(=O)/C2=N\S(=O)(=O)c2cccs2)cc1 | 7.44 µM
NC1=NC[C@H](Cc2ccc(O)cc2)N1CCCCC1CCCCC1 | 2.34 µM
Cc1ccc(NC(=O)c2cc(S(=O)(=O)NCCC3=CCCCC3)ccc2F)cc1 | 7.48 µM
Oc1ccc(CNc2ccccc2)c2cccnc12 | 22.8 µM
CCOC(=O)C(=CNc1ccc(C(O)(C(=O)OCC)C(F)(F)F)cc1C)C(=O)OCC (stereo unspecified) | 5.26 µM
Cc1ccc(NC(=S)N/N=C/c2ccc([N+](=O)[O-])s2)cc1 | 6.79 µM
CCN(CC)c1ccc(/C=N/NC(=O)c2ccc3nc[nH]c3c2)c(O)c1 | 2.7 µM
Cc1ccc(NS(=O)(=O)c2ccc(Cl)c(NC(=S)NC(=O)C3CCCCC3)c2)cc1Cl | 14 µM
O=C(Nc1cccc(C(F)(F)F)c1)Oc1ccc(Cl)c2cccnc12 | 7.64 µM
CCN(CC)c1ccc(/C=N/NC(=S)NCc2ccccc2)c(O)c1 | 12.3 µM
CCC1(OC(=O)CN)C(=O)OCc2c1cc1n(c2=O)Cc2cc3ccccc3nc2-1 (stereo unspecified) | < 0.195 µM
COc1ccc2[nH]c3c(C)c4ccncc4c(C)c3c2c1 | 4.13 µM
C(=C\c1nc(N2CCCCCC2)c2ccccc2n1)/c1ccccc1 | 5.15 µM
O=C(NCc1cccnc1)/C(=C\c1ccc(-c2ccc(Br)cc2)o1)S(=O)(=O)c1ccccc1 | 4.27 µM
O=C(O)c1ccc(S(=O)(=O)/N=C2\C=C(Nc3ccccc3F)C(=O)c3ccccc32)cc1 | 7.91 µM
COCCN(C(=O)COC(=O)C1CCC(C(C)(C)C)CC1)c1c(N)n(Cc2ccccc2)c(=O)[nH]c1=O (stereo unspecified) | 2.17 µM
O=S(=O)(c1ccc2nc(Nc3ccccc3)ccc2c1)N1CCCCC1 | 22.4 µM
CC(=O)N(Cc1ccc(F)cc1)C1=C(NCCc2ccccc2)C(=O)c2ccccc2C1=O | 4.13 µM

SMILES | AC50
COC(=O)c1ccc2c(=O)n(-c3ccccc3)c(SCN3C(=O)c4ccccc4C3=O)nc2c1 | 3.86 µM
COc1ccc(OC)c(NC(=O)CSc2nnc(-c3cccnc3)s2)c1 | 7.37 µM
N#C/C(=C\c1ccc([N+](=O)[O-])o1)c1nc2ccccc2[nH]1 | 4.09 µM
C/C(=N\NC(=O)c1cc2ccccc2cc1O)c1ccccn1 | 2.66 µM
Oc1cccc(/C=N/Nc2ccc(Cl)nn2)c1O | 4.69 µM
C/C(=N\NC(=O)c1nnn(-c2nonc2N)c1CN(C)c1ccccc1)c1ccccc1O | 9.18 µM
O=C1C=C(N2CCOCC2)c2ccccc2C1=O | 6.13 µM
O=C(N/N=C/c1cc(Br)cc(Br)c1O)c1ccncc1 | 7.34 µM
COc1ccc(C(=O)N/N=C(\C)c2ccccn2)cc1OC | 2.54 µM
C=C1C(=O)O[C@@H]2C[C@@H](C)[C@@H]3C=CC(=O)[C@@]3(C)[C@@H](OC(=O)CC(=O)O[C@H]3[C@@H]4C(=C)C(=O)O[C@@H]4C[C@@H](C)[C@@H]4C=CC(=O)[C@]43C)[C@H]12 | 0.386 µM
COc1ccc(Cn2c(-c3ccc(C)cc3)c[n+]3ccccc23)cc1 | 5.23 µM
Cc1nn(S(=O)(=O)c2ccc(Cl)cc2)c(C)c1Sc1ccc([N+](=O)[O-])cc1 | 7.69 µM
CCOc1ccccc1NC(=O)C(=O)N/N=C/c1cc(Br)ccc1O | 4.36 µM
COc1ccc(C2NCCc3c2[nH]c2ccccc32)cc1COc1ccc(F)cc1 (stereo unspecified) | 14 µM
NC(N)=N/N=C/c1ccc(N(c2ccccc2)c2ccccc2)cc1 | 7.36 µM
CCn1c(-c2ccc(C)cc2)nn(CC(=O)NCCc2ccccc2)c1=S | 7.22 µM
COc1cccc(/C=N/NC(=O)c2cc3cc([N+](=O)[O-])ccc3s2)c1O | 7.08 µM
CCc1cc(C(=O)NC2CCCc3c2cnn3-c2cccc(C)c2C)n(C)n1 (stereo unspecified) | < 0.195 µM
